# Tested on: mTORC1 signaling pathway
# Test: Western blot of mTORC1 substrates in crude synaptosomes from rat prefrontal cortex
# Format: in vivo
# Conditions: Example B, 1 hr after administration
# Method: Study Design. Forty-eight (48) male Sprague Dawley rats weighing between 175 and 200 g were randomized into 8 study groups (n=6/group), following a 5-day acclimation period. On study day 0, rats in Groups 3 and 7 received a single dose of Sal while Groups 4 and 8 received a single dose of Ket (10 mg/kg) each by i.p. injection. The rats in Groups 1 and 5 received a single dose of Veh while Groups 2 and 6 received a single dose of NV-5138 (160 mg/kg) each by oral gavage. One hour after dosing, rats in Groups 1-4 were sacrificed by conscious decapitation and followed by collection of the PFC. Crude synaptosomes were prepared from the PFC and three mTORC1 substrates, pmTOR, pp70S6K and p4E-BP1, and corresponding total protein loading controls (mTOR, p70S6K, and GAPDH) were quantitated by WB. Twenty-four hours after dosing, rats in Groups 5-8 were sacrificed by conscious decapitation and collection of the PFC. Crude synaptosomes were prepared from the PFC and the synaptic proteins (GluR1 and PSD95), as well as the total protein loading control (GAPDH), were quantitated by WB.
# Formulation of Ket and NV-5138 for Administration. Ket (Sigma, cat #K1884) was dissolved in Sal at a concentration of 10 mg/mL. A volume of 1 mL/kg was injected i.p. NV-5138 (Navitor, Lot #06) was prepared by dissolving in Veh at a concentration of 50 mg/mL. The dosing volume based on the weight of the animal (3.2 mL/kg) was administered by oral gavage. Test articles were prepared the day of dosing.
# Prefrontal Cortex Synaptosome Preparations. The brain was dissected from rats in all groups (n=6/group) and rinsed in PBS. The PFC was collected as shown in FIG. 6 and homogenized at 4° C. in homogenization buffer (0.32 M sucrose, 20 mM HEPES at pH 7.4, 1 mM EDTA, 5 mM NaF, 1 mM NaVO3 and protease inhibitor cocktail (Roche; Ser. No. 19/543,200)). The homogenate was centrifuged for 10 min at 2,800 rpm at 4° C. after which the supernatant was removed and re-centrifuged at 12,000 rpm for 10 min at 4° C. The resulting pellet containing crude synaptosomes was re-suspended in Lysis buffer (50 mM Tris-HCl (pH 7.5), 150 mM NaCl, 1% Triton X-100, 0.1% SDS, 2 mM, EDTA, 1 mM NaVO3, 5 mM NaF and protease inhibitor cocktail) and sonicated on ice for 20 s at 50% amplitude. The protein concentration was determined by Bradford assay and all samples were mixed with loading buffer (60 mM Tris-HCl pH 6.8, 20 mM DTT, 2% SDS, 10% glycerol, 5% β-mercaptoethanol and 0.01% Bromophenol blue) and stored at -20° C. until WB analysis.
# Western Blot Analysis: Western blot analysis for GluR1, PSD95 and GAPDH was performed as previously described. Briefly, synaptosomes preparations (15 μg total protein) were loaded into 10-15% SDS PAGE gel for electrophoresis and transferred to a polyvinylidene difluoride (PVDF) membrane in transfer buffer (10× premixed electrophoresis buffer contains 25 mM Tris, 192 mM glycine, pH 8.3; Bio-Rad). […] After final three washes with PBS-T buffer, bands were detected using enhanced chemiluminescence. […]
SMILES,levels of p4E-BP1 in crude PFC synaptosomes (Ket 10 mg/kg i.p.),levels of pmTOR in crude PFC synaptosomes (Ket 10 mg/kg i.p.),levels of p4E-BP1 in crude PFC synaptosomes (NV-5138 160 mg/kg oral),levels of pmTOR in crude PFC synaptosomes (NV-5138 160 mg/kg oral),levels of pp70S6K in crude PFC synaptosomes (NV-5138 160 mg/kg oral)
"CNC1(c2ccccc2Cl)CCCCC1=O (centres unmarked) [Ket, ketamine, reference compound]",significantly increased,significantly increased,,,
CC(C)(C[C@H](N)C(=O)O)C(F)F [NV-5138],,,significantly increased,significantly increased,significantly increased

# From patent US20210228523A1, “MODULATORS OF SESTRIN-GATOR2 INTERACTION AND USES THEREOF” (Navitor Pharmaceuticals, Inc., priority 2017, published 2021)
